Source: US20190233884A1 (University of Southern California, priority 2016, published 2019)

System: patients with refractory metastatic colorectal cancer (mCRC)
Assay: PFS, OS and disease control in the training (evaluation) cohort of refractory mCRC patients receiving TAS-102 (n=52, Japan), by baseline characteristics, SNP genotype and toxicity
Type: in vivo, human
Conditions: evaluation cohort; for HR OS (95% CI) / HR PFS (95% CI): XRCC3 rs861539 G/A vs G/G (Ref.)
Description: All patients underwent the treatment in salvage-line setting. […]
Genomic DNA was extracted from peripheral whole blood in patients of all cohorts using the QIAmp Kit (Qiagen, Valencia, Calif., USA) according to the manufacturer's protocol (www.qiagen.com). The candidate SNPs were genotyped using PCR-based direct DNA sequence analysis by ABI 3100A Capillary Genetic Analyzer and Sequencing Scanner v1.0 (Applied Biosystems). Amplification of extracted DNA was carried out using both forward and reverse primers for each gene polymorphism as shown in Table 1. […] The investigators analyzing SNPs were blinded to the clinical data of the study patients.
The primary endpoint in this study was progression-free survival (PFS), and the secondary endpoints were overall survival (OS) and disease control rate (DCR). PFS was calculated from the date of starting treatment to the first observation of disease progression or death from any cause. If a patient had no disease progression or death, PFS was censored at the date of last follow up. OS was calculated from the date of starting treatment until the date of death from any cause or the date of the last follow-up, at which point OS was censored. The disease control rate (DCR) was defined as the proportion of patients who achieved a stable disease (SD) or […] according to RECISTv1.1. Chi-square test was used to examine the difference in baseline patient characteristics among the three cohorts. Allelic distribution of all SNPs by ethnicity for deviation from Hardy-Weinberg equilibrium and the allelic frequencies of SNPs were tested using the Chi-square tests with one degree of freedom. The associations between candidate SNPs and disease control, and toxicities were examined using contingency tables and Fisher's exact test. The associations of SNPs with PFS and OS were analysed using Kaplan-Meier curves and the log-rank test. Because the true mode of inheritance of candidate SNPs was not established yet, a codominant or dominant genetic model if appropriate was considered.
All patients underwent the treatment in salvage-line setting. […] In all patients, adverse events were graded according to the Common Terminology Criteria for Adverse Events, version 4.0. […]
Genomic DNA was extracted from peripheral whole blood in patients of all cohorts using the QIAmp Kit (Qiagen, Valencia, Calif., USA) according to the manufacturer's protocol (www.qiagen.com). The candidate SNPs were tested using PCR-based direct DNA sequence analysis by ABI 3100A Capillary Genetic Analyzer and Sequencing Scanner v1.0 (Applied Biosystems). […] The investigators analyzing SNPs were blinded to the clinical data.
The primary endpoint in this study was progression-free survival (PFS), and the secondary endpoints were overall survival (OS) and disease control rate (DCR).

[1] = Adjuvant history No vs Yes, univariate
[2] = Histology Mod-por vs well, univariate
[3] = KRAS Mutant vs Wild type, univariate
[4] = LN metastasis No vs Yes, univariate
[5] = Liver metastasis No vs Yes, univariate
[6] = Lung metastasis No vs Yes, univariate
[7] = Number of metastases >2 vs ≤2, univariate

Trifluridine/tipiracil [TAS-102]
PD, patients n (%) (Pin1 rs2233679 T/T): 4 (57%) | Disease Control Rate SD, patients n (%) (RAD51 rs1801320 G/C): 3 (43%) | PD, patients n (%) (RAD51 rs1801320 G/C): 4 (57%) | Disease Control Rate SD, patients n (%) (RAD51 rs1801320 G/G): 12 (31%) | PD, patients n (%) (RAD51 rs1801320 G/G): 27 (69%) | Disease Control CR/PR/SD, patients n (%) (XRCC3 rs861539 G/A): 7 (44%) | Median PFS (95% CI) (XRCC3 rs861539 G/A): 3.8 (1.6, 6.6) months | OS (XRCC3 rs861539 G/A): 15.6 months | PD, patients n (%) (XRCC3 rs861539 G/A): 9 (56%) | HR OS (95% CI) (multivariable): 0.31 (0.09, 1.03) | HR PFS (95% CI) (multivariable): 0.52 (0.24, 1.11) | HR OS (95% CI) (univariate): 0.25 (0.08, 0.79) | HR PFS (95% CI) (univariate): 0.44 (0.21, 0.92) | Disease Control CR/PR/SD, patients n (%) (XRCC3 rs861539 G/G): 8 (27%) | Median OS (95% CI) (XRCC3 rs861539 G/G): 6.3 (4.9, 12.4+) months | Median PFS (95% CI) (XRCC3 rs861539 G/G): 2.3 (1.9, 3.3) months | OS (XRCC3 rs861539 G/G): 6.3 months | PD, patients n (%) (XRCC3 rs861539 G/G): 22 (73%) | Disease Control Rate SD, patients n (%) (p21 rs1059234 Any C): 10 (29%) | PD, patients n (%) (p21 rs1059234 Any C): 25 (71%) | Disease Control Rate SD, patients n (%) (p21 rs1059234 C/C): 4 (31%) | PD, patients n (%) (p21 rs1059234 C/C): 9 (69%) | Disease Control Rate SD, patients n (%) (p21 rs1059234 T/C): 6 (27%) | PD, patients n (%) (p21 rs1059234 T/C): 16 (73%) | Disease Control Rate SD, patients n (%) (p21 rs1059234 T/T): 5 (45%) | PD, patients n (%) (p21 rs1059234 T/T): 6 (55%) | Disease Control Rate SD, patients n (%) (p21 rs1801270 A/A): 4 (31%) | PD, patients n (%) (p21 rs1801270 A/A): 9 (69%) | Disease Control Rate SD, patients n (%) (p21 rs1801270 A/C): 6 (29%) | PD, patients n (%) (p21 rs1801270 A/C): 15 (71%) | Disease Control Rate SD, patients n (%) (p21 rs1801270 Any C): 11 (33%) | PD, patients n (%) (p21 rs1801270 Any C): 22 (67%) | Disease Control Rate SD, patients n (%) (p21 rs1801270 C/C): 5 (42%) | PD, patients n (%) (p21 rs1801270 C/C): 7 (58%) | Disease Control Rate SD, patients n (%) (p53 rs1042522 Any G): 9 (35%) | PD, patients n (%) (p53 rs1042522 Any G): 17 (65%) | Disease Control Rate SD, patients n (%) (p53 rs1042522 C/C): 6 (30%) | PD, patients n (%) (p53 rs1042522 C/C): 14 (70%) | Disease Control Rate SD, patients n (%) (p53 rs1042522 G/G): 2 (33%) | PD, patients n (%) (p53 rs1042522 G/G): 4 (67%) | HR for OS (ATM rs609429, multivariable adjusted for liver metastases and adjuvant history): 0.24 | HR for OS (ATM rs609429 any G vs C/C, univariate): 0.37 | Overall Survival Median, months (Adjuvant history No): 6.3 months | Progression-Free Survival Median, months (Adjuvant history No): 2.1 months | Overall Survival HR [1]: 2.44 | Progression-Free Survival HR [1]: 1.90 | Overall Survival Median, months (Adjuvant history Yes): 8.7 months | Progression-Free Survival Median, months (Adjuvant history Yes): 3.7 months | Overall Survival Median, months (Age <61): 8.1 months | Progression-Free Survival Median, months (Age <61): 2.2 months | Overall Survival Median, months (Age ≥61): 6.3 months | Progression-Free Survival Median, months (Age ≥61): 3.0 months | Overall Survival HR (Age ≥61 vs <61, univariate): 1.30 | Progression-Free Survival HR (Age ≥61 vs <61, univariate): 0.81 | PFS (CHEK2 rs2267130 any C allele): 3.4 months | HR for PFS (CHEK2 rs2267130 any C vs T/T, univariate): 0.48 | Overall Survival Median, months (Histology Mod-por): 8.7 months | Progression-Free Survival Median, months (Histology Mod-por): 3.0 months | Overall Survival HR [2]: 0.52 | Progression-Free Survival HR [2]: 0.94 | Overall Survival Median, months (Histology well): 6.3 months | Progression-Free Survival Median, months (Histology well): 2.1 months | Overall Survival Median, months (KRAS Mutant): 8.3 months | Progression-Free Survival Median, months (KRAS Mutant): 3.3 months | Overall Survival HR [3]: 0.42 | Progression-Free Survival HR [3]: 0.51 | Overall Survival Median, months (KRAS Wild type): 7.2 months | Progression-Free Survival Median, months (KRAS Wild type): 2.1 months | Overall Survival Median, months (LN metastasis No): 7.2 months | Progression-Free Survival Median, months (LN metastasis No): 2.5 months | Overall Survival HR [4]: 1.06 | Progression-Free Survival HR [4]: 1.27 | Overall Survival Median, months (LN metastasis Yes): 8.3 months | Progression-Free Survival Median, months (LN metastasis Yes): 3.0 months | Overall Survival Median, months (Liver metastasis No): 8.7 months | Progression-Free Survival Median, months (Liver metastasis No): 4.2 months | Overall Survival HR [5]: 0.57 | Progression-Free Survival HR [5]: 0.43 | Overall Survival Median, months (Liver metastasis Yes): 7.2 months | Progression-Free Survival Median, months (Liver metastasis Yes): 2.3 months | Overall Survival Median, months (Lung metastasis No): 6.3 months | Progression-Free Survival Median, months (Lung metastasis No): 2.5 months | Overall Survival HR [6]: 1.44 | Progression-Free Survival HR [6]: 1.19 | Overall Survival Median, months (Lung metastasis Yes): 8.3 months | Progression-Free Survival Median, months (Lung metastasis Yes): 2.9 months | Overall Survival Median, months (Number of metastases >2): 8.1 months | Progression-Free Survival Median, months (Number of metastases >2): 2.9 months | Overall Survival HR [7]: 1.63 | Progression-Free Survival HR [7]: 1.22
